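Cells were grown in 96-well plates and exposed to each compound for 48 hours at five concentrations; endpoints were interpolated linearly between bracketing concentrations, or set to the highest concentration if not reached. At the TGI there is no net growth.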
How the values were obtained:
Assay in all cases: growth of human tumour cells (NCI), 48 h
OVCAR-4 ovarian = test system: OVCAR-4 ovarian
HCC-2998 colon = test system: HCC-2998 colon
HCT-15 colon = test system: HCT-15 colon
DLD-1 colon = test system: DLD-1 colon
A549 NSCLC = test system: A549 NSCLC
HL-60(TB) leukemia = test system: HL-60(TB) leukemia
DMS 114 small cell lung = test system: DMS 114 small cell lung
SW-620 colon = test system: SW-620 colon
UACC-257 melanoma = test system: UACC-257 melanoma
EKVX NSCLC = test system: EKVX NSCLC
KM12 colon = test system: KM12 colon
RXF-631 renal = test system: RXF-631 renal
OVCAR-8 ovarian = test system: OVCAR-8 ovarian
OVCAR-3 ovarian = test system: OVCAR-3 ovarian
MALME-3M melanoma = test system: MALME-3M melanoma
CCRF-CEM leukemia = test system: CCRF-CEM leukemia
SN12C renal = test system: SN12C renal
SNB-19 CNS = test system: SNB-19 CNS
ACHN renal = test system: ACHN renal
U251 CNS = test system: U251 CNS
DMS 273 small cell lung = test system: DMS 273 small cell lung
M14 melanoma = test system: M14 melanoma
SK-OV-3 ovarian = test system: SK-OV-3 ovarian
NCI-H460 lung = test system: NCI-H460 lung
UO-31 renal = test system: UO-31 renal
CAKI-1 renal = test system: CAKI-1 renal
SNB-78 CNS = test system: SNB-78 CNS
A498 renal = test system: A498 renal
SR leukemia = test system: SR leukemia
SF-539 CNS = test system: SF-539 CNS
NCI-H522 lung = test system: NCI-H522 lung
HCT-116 colon = test system: HCT-116 colon
SF-295 CNS = test system: SF-295 CNS
NCI-H23 lung = test system: NCI-H23 lung
TK-10 renal = test system: TK-10 renal
HT29 colon = test system: HT29 colon
XF 498 CNS = test system: XF 498 CNS
NCI-H226 lung = test system: NCI-H226 lung
MOLT-4 leukemia = test system: MOLT-4 leukemia
UACC-62 melanoma = test system: UACC-62 melanoma
OVCAR-5 ovarian = test system: OVCAR-5 ovarian
LXFL 529 NSCLC = test system: LXFL 529 NSCLC
COLO 205 colon = test system: COLO 205 colon
KM20L2 colon = test system: KM20L2 colon
HOP-62 NSCLC = test system: HOP-62 NSCLC
IGROV1 ovarian = test system: IGROV1 ovarian
M19-MEL melanoma = test system: M19-MEL melanoma
HOP-92 NSCLC = test system: HOP-92 NSCLC
SNB-75 CNS = test system: SNB-75 CNS
SK-MEL-5 melanoma = test system: SK-MEL-5 melanoma
SK-MEL-28 melanoma = test system: SK-MEL-28 melanoma
786-0 renal = test system: 786-0 renal
K-562 leukemia = test system: K-562 leukemia
SF-268 CNS = test system: SF-268 CNS
RPMI-8226 leukemia = test system: RPMI-8226 leukemia
LOX IMVI melanoma = test system: LOX IMVI melanoma
RXF 393 renal = test system: RXF 393 renal
SK-MEL-2 melanoma = test system: SK-MEL-2 melanoma
HOP-18 NSCLC = test system: HOP-18 NSCLC

CN(C(=O)C12C3(C(=O)C(C)(C)C)C4C5(C#N)C3C1(C(=O)C(C)(C)C)C5C42C(=O)C(C)(C)C)C(C)(C)C (configuration not stated)
TGI (OVCAR-4 ovarian): > 50 µM | TGI (HCC-2998 colon): > 50 µM | TGI (HCT-15 colon): > 50 µM | TGI (DLD-1 colon): > 50 µM | TGI (A549 NSCLC): > 50 µM | TGI (HL-60(TB) leukemia): > 50 µM | TGI (DMS 114 small cell lung): > 50 µM | TGI (SW-620 colon): > 50 µM | TGI (UACC-257 melanoma): > 50 µM | TGI (EKVX NSCLC): > 50 µM | TGI (KM12 colon): > 50 µM | TGI (RXF-631 renal): > 50 µM | TGI (OVCAR-8 ovarian): > 50 µM | TGI (OVCAR-3 ovarian): > 50 µM | TGI (MALME-3M melanoma): > 50 µM | TGI (CCRF-CEM leukemia): > 50 µM | TGI (SN12C renal): > 50 µM | TGI (SNB-19 CNS): > 50 µM | TGI (ACHN renal): > 50 µM | TGI (U251 CNS): > 50 µM | TGI (DMS 273 small cell lung): > 50 µM | TGI (M14 melanoma): > 50 µM | TGI (SK-OV-3 ovarian): > 50 µM | TGI (NCI-H460 lung): > 50 µM | TGI (UO-31 renal): > 50 µM | TGI (CAKI-1 renal): > 50 µM | TGI (SNB-78 CNS): > 50 µM | TGI (A498 renal): > 50 µM | TGI (SR leukemia): > 50 µM | TGI (SF-539 CNS): > 50 µM | TGI (NCI-H522 lung): > 50 µM | TGI (HCT-116 colon): > 50 µM | TGI (SF-295 CNS): > 50 µM | TGI (NCI-H23 lung): > 50 µM | TGI (TK-10 renal): > 50 µM | TGI (HT29 colon): > 50 µM | TGI (XF 498 CNS): > 50 µM | TGI (NCI-H226 lung): > 50 µM | TGI (MOLT-4 leukemia): > 50 µM | TGI (UACC-62 melanoma): > 50 µM | TGI (OVCAR-5 ovarian): > 50 µM | TGI (LXFL 529 NSCLC): > 50 µM | TGI (COLO 205 colon): > 50 µM | TGI (KM20L2 colon): > 50 µM | TGI (HOP-62 NSCLC): > 50 µM | TGI (IGROV1 ovarian): > 50 µM | TGI (M19-MEL melanoma): > 50 µM | TGI (HOP-92 NSCLC): > 50 µM | TGI (SNB-75 CNS): > 50 µM | TGI (SK-MEL-5 melanoma): > 50 µM | TGI (SK-MEL-28 melanoma): > 50 µM | TGI (786-0 renal): > 50 µM | TGI (K-562 leukemia): > 50 µM | TGI (SF-268 CNS): > 50 µM

NC(=O)C(=Cc1ccc(CP(=O)(O)O)cc1)C(N)=O
TGI (OVCAR-4 ovarian): > 100 µM | TGI (HCC-2998 colon): > 100 µM | TGI (HCT-15 colon): > 100 µM | TGI (DLD-1 colon): > 100 µM | TGI (A549 NSCLC): > 100 µM | TGI (DMS 114 small cell lung): > 100 µM | TGI (SW-620 colon): > 100 µM | TGI (UACC-257 melanoma): > 100 µM | TGI (EKVX NSCLC): > 100 µM | TGI (KM12 colon): > 100 µM | TGI (RPMI-8226 leukemia): > 100 µM | TGI (OVCAR-8 ovarian): > 100 µM | TGI (OVCAR-3 ovarian): > 100 µM | TGI (MALME-3M melanoma): > 100 µM | TGI (SN12C renal): > 100 µM | TGI (SNB-19 CNS): > 100 µM | TGI (ACHN renal): > 100 µM | TGI (U251 CNS): > 100 µM | TGI (DMS 273 small cell lung): > 100 µM | TGI (M14 melanoma): > 100 µM | TGI (SK-OV-3 ovarian): > 100 µM | TGI (NCI-H460 lung): > 100 µM | TGI (LOX IMVI melanoma): > 100 µM | TGI (UO-31 renal): > 100 µM | TGI (CAKI-1 renal): > 100 µM | TGI (RXF 393 renal): > 100 µM | TGI (SNB-78 CNS): > 100 µM | TGI (SK-MEL-2 melanoma): > 100 µM | TGI (HOP-18 NSCLC): > 100 µM | TGI (A498 renal): > 100 µM | TGI (SF-539 CNS): > 100 µM | TGI (NCI-H522 lung): > 100 µM | TGI (HCT-116 colon): > 100 µM | TGI (SF-295 CNS): > 100 µM | TGI (NCI-H23 lung): > 100 µM | TGI (TK-10 renal): > 100 µM | TGI (HT29 colon): > 100 µM | TGI (XF 498 CNS): > 100 µM | TGI (MOLT-4 leukemia): > 100 µM | TGI (UACC-62 melanoma): > 100 µM | TGI (OVCAR-5 ovarian): > 100 µM | TGI (LXFL 529 NSCLC): > 100 µM | TGI (COLO 205 colon): > 100 µM | TGI (KM20L2 colon): > 100 µM | TGI (HOP-62 NSCLC): > 100 µM | TGI (IGROV1 ovarian): > 100 µM | TGI (M19-MEL melanoma): > 100 µM | TGI (HOP-92 NSCLC): > 100 µM | TGI (SNB-75 CNS): > 100 µM | TGI (SK-MEL-5 melanoma): > 100 µM | TGI (SK-MEL-28 melanoma): > 100 µM | TGI (786-0 renal): > 100 µM | TGI (K-562 leukemia): > 100 µM
